In ChEMBL document CHEMBL1157413, “Pyronane monoterpenoids from the fruit of Gardenia jasminoides” (J Nat Prod, 2008):

Target: T1, Tyrosinase (Agaricus bisporus, UniProt O42713)
T1 sequence (O42713 whole entry): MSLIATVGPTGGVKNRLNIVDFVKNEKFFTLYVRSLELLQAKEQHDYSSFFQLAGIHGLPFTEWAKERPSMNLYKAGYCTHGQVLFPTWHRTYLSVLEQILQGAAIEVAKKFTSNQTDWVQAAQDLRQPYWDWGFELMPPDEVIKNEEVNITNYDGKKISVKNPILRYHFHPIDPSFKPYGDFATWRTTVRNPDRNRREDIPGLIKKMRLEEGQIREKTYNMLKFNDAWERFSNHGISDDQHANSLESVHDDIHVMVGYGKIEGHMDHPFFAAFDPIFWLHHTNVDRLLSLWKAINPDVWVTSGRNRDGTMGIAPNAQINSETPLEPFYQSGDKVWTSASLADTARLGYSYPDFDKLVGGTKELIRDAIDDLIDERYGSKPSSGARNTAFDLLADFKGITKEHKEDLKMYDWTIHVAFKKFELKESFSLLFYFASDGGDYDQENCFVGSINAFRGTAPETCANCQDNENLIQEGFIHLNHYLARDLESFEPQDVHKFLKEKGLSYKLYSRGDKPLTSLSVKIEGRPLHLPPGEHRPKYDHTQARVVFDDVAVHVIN
Description: Inhibition of mushroom tyrosinase activity after 10 mins

SMILES: CC1(C)CC(=O)C=C(CO)[C@H]1CO [JASMINODIOL]
- IC50: 2200 µM
